Data: US9994915B2, “miR-211 expression and related pathways in human melanoma” (Sanford-Burnham Medical Research Institute, priority 2010, dated 2018)

Key:
Assay type in all cases: cell-based, human
[1] = tested on: WM1552C melanoma cells; assay: cell proliferation (cell counts) of WM1552C lines
Description: The over-expression of KCNMA1 is often associated with both cell proliferation and cell migration/invasion in various cancers. Therefore, the effects of depletion of miR-211 and associated over-expression of KCNMA1 on these process in melanoma cells were determined. Proliferation rates of melanoma cell lines stably transfected with the miR-211 expression cassette were compared with those of untransfected melanoma cells and cell lines transfected with the empty expression vector (FIG. 8A), respectively.
Assays were performed using WM1552C, WM1552C/VO, WM1552C/211(400), WM1552C/211(800), A375, A375/VO, and A375/211 cell lines. Cells were grown in log phase, trypsinized, counted using an automated cell counter (Cellometer®, Nexcelom Bioscience), and then seeded into 75 cm^2 flasks at 5×10^5 cells per flask (in triplicate). Media was changed after 6 hours, and cells were further fed every 48 hours (Complete Tu Media). At days 4, 10, 15, and 21, cells were trypsinized, counted (Cellometer®, Nexcelom Bioscience), and then reseeded. Each assay was performed in duplicate for all cell lines.

[2] = tested on: WM1552C melanoma cells; assay: Matrigel invasion chamber assay; details: 48 hours
Description: BD BioCoat™ growth factor reduced insert plates (Matrigel™ Invasion Chamber 12 well plates) were prepared by rehydrating the BD Matrigel™ matrix coating in the inserts with 0.5 mls of serum-free Complete Tu media for two hours at 37° C. The rehydration solution was carefully removed from the inserts, 0.5 ml Complete Tu (2% FBS) was added to the lower wells of the plate, and 2.5×10^4 cells suspended in 0.5 ml of serum-free Complete Tu media were added to each insert well. WM1552C/211(800) cells were additionally transfected with the Anti-miR miRNA Inhibiter for hsa-miR-211 as well as Negative Control #1 (Ambion) (miR-Scramble) at a concentration of 100 nM using siPORT NeoFX (Ambion). […] The number of migrating tumor cells was counted from each of five images per cell line (including miR Inhibiter transfected cells) in the central area of the filter. […] Data are expressed as the percent invasion through the membrane relative to the migration of WM1552C (Wild Type) through the membrane.
The impact of miR-211 expression on the invasive properties of WM1552C. WM1552C/211(400) and WM1552C/211(800) cells, along with WM1552C/VO, WM1552C/KC KO, and untransfected WM1552C was determined. […]
2.5×10^5 cells WM1552C/211(800) cells were seeded into wells of a 6-well plate. […] After 48 hours, the cells were harvested by trypsinization and counted using an automated cell counter (Cellometer®, Nexcelom Bioscience). […]

[3] = tested on: PDK4; assay: proteomics (mass spectrometric) data, PDK4 expression; details: miR-211-expressing melanoma cells
Description: Deep-sequencing (RNA-seq) and proteomics (mass spectrometry) data from two melanoma cell lines A375 and WM1552C, each expressing miR-211 or the empty vector, were generated. […] Energy consumption was investigated in miR-211-expressing cells. Using the Seahorse XF96 Analyzer, it was determined that miR-211-expressing melanoma cells (A375) consumed nearly double the amount of oxygen as control cells expressing the empty vector (FIG. 35). […] Finally, we measured the level of hypoxia-inducible factor 1 alpha (HIF-1α) in miR-211-expressing cells. HIF-1α expression was reduced by miR-211 expression which is an indication of cellular respiration changes (FIG. 37).
This target was further confirmed by the cleavage assay, and the downregulation was verified by western blot analysis (FIG. 38). Similarly, peroxisome proliferator-activated receptor-γ coactivator (PGC1α) was identified by the proteomics data and validated by western blot analysis. PGC1α is a low express gene in A375 cells, but it is been targeted by miR-211 according to target cleavage and qPCR results. Finally, insulin-like growth factor-binding protein 5 (IGFBP5) was identified through the RNA-seq data and results are illustrated in FIG. 34.

Substance: miR-211: pre-miR-211 sequence stably expressed from plasmid pcDNA4/miR-211 in melanoma cells; mature sequence UUCCCUUUGUCAUCCUUCGCCU (SEQ ID NO: 15) (listed as Homo sapiens)
- decrease in cell counts compared to WM1552C ([1]; WM1552C/211(400), after a 21-day period): greater than 30%
- decrease in cell proliferation compared to WM1552C ([1]; WM1552C/211(800), after a 21-day period): even greater decrease
- decrease in growth over the invasion assay period ([1]; WM1552C/211 cells, 48 hours): 8-10%
- migrated less than WM1552C (invasion) ([2]; WM1552C/211(400)): ~40%
- migrated less than WM1552C (invasion) ([2]; WM1552C/211(800)): ~60%
- PDK4 expression [3]: heavily downregulated
